According to paper PMC7956643, “Synthesis of Novel Pyrido[1,2-c]pyrimidine Derivatives with 6-Fluoro-3-(4-piperidynyl)-1,2-benzisoxazole Moiety as Potential SSRI and 5-HT1A Receptor Ligands” (International Journal of Molecular Sciences, 2021):

Tests used:
SERT protein = molecular target: T1, SERT protein (Rattus norvegicus, UniProt P31652); assay: SERT radioligand binding assay; conditions: [3H]-citalopram 1.0 nM; rat cortex tissue
T1 construct: from tissue; host or cells: rat cortex
Description: Radioligand binding was performed using rat cortex tissue. All assays were carried out in duplicate. First, 50 µL working solution of the tested compounds, 50 µL [^3H]-citalopram (final concentration 1.0 nM) and 150 µL tissue suspension, prepared in assay buffer (50 mM Tris. pH 7.7; 150 mM NaCl; 5 mM KCl), were transferred to a polypropylene 96-well microplate using 96-wells pipetting station Rainin Liquidator (MettlerToledo). […] The reaction was terminated by rapid filtration through GF/B filter mate presoaked with 0.3% polyethyleneimine for 30 min. Ten rapid washes with 200 µL 50 mM Tris buffer (4 °C, pH 7.7) were performed using an automated harvester system—Harvester-96 MACH III FM (Tomtec). […] Data were fitted to a one-site curve-fitting equation with Prism 6 (GraphPad Software) and Ki values were estimated from the Cheng–Prusoff equation.

5-HT2A receptors = molecular target: T2, 5-HT2A receptors (Homo sapiens, UniProt P28223); assay: 5-HT2A radioligand binding assay; conditions: [3H]-ketanserin; HEK293 cells, human receptor
T2 construct: expressed in transfected cells
T2 sequence (P28223 whole entry): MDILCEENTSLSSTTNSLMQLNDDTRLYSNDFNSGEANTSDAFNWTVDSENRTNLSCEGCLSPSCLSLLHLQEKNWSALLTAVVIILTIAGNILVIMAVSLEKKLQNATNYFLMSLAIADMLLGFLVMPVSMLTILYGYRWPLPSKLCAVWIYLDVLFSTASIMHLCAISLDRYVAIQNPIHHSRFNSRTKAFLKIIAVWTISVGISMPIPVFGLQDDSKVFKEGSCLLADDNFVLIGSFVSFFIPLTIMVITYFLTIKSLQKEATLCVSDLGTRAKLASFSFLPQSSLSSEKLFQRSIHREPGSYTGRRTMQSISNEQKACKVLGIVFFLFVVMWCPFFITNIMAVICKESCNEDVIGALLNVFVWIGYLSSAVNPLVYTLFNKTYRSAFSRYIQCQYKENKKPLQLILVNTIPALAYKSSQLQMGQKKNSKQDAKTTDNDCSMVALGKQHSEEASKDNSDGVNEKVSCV
Description: In vitro radioligand binding assays for 5-HT2A, 5-HT6, 5-HT7 and D2 receptors were carried out using methods published by Zajdel et al.. For the assays, HEK293 cell cultures stably expressing the investigated human receptors were used. Cell pellets were thawed and homogenized in 20 vol of assay buffer using an Ultra Turrax tissue homogenizer, then centrifuged twice at 35000 g for 20 min at 4 °C, with incubation for 15 min at 37 °C in between. The composition of the assay buffers was as follows: for 5-HT2A receptors—50 mM Tris-HCl, 0.1 mM EDTA, 4 mM MgCl2 and 0.1% ascorbate; for 5-HT6 receptors—50 mM Tris-HCl, 0.5 mM EDTA, 4 mM MgCl2; for 5-HT7 receptors—50 mM Tris-HCl, 4 mM MgCl2, 10 µM pargyline and 0.1% ascorbate; for D2 receptors—50 mM Tris-HCl, 1 mM EDTA, 4 mM MgCl2, 120 mM NaCl, 5 mM KCl, 1.5 mM CaCl2 and 0.1% ascorbate. […] The process of equilibration was terminated by rapid filtration through Unifilter plates with a 96-well cell harvester, and radioactivity retained on the filters was quantified on a Microbeta plate reader (PerkinElmer, USA). For displacement studies, the assay samples contained as radioligands (PerkinElmer): 2 nM [^3H]-ketanserin (spec. act. 53.4 Ci/mmol) for 5-HT2A receptors; 2 nM [^3H]-LSD (spec. act. 83.6 Ci/mmol) for 5-HT6 receptors; 0.6 nM [^3H]-5-CT (spec. act. 39.2 Ci/mmol) for 5-HT7 receptors and [^3H]-raclopride (spec. act. 76.0 Ci/mmol) for D2 receptors. […] Each compound was tested in triplicate at 7–8 concentrations (10^-11-10^-4 M). The inhibition constants (Ki) were calculated from the Cheng–Prusoff equation [46]. Results were expressed as means of at least two separate experiments.

5-HT6 receptors = molecular target: T3, 5-HT6 receptors (Homo sapiens, UniProt P50406); assay: 5-HT6 radioligand binding assay; conditions: [3H]-LSD; HEK293 cells, human receptor
T3 construct: expressed in transfected cells
T3 sequence (P50406 whole entry): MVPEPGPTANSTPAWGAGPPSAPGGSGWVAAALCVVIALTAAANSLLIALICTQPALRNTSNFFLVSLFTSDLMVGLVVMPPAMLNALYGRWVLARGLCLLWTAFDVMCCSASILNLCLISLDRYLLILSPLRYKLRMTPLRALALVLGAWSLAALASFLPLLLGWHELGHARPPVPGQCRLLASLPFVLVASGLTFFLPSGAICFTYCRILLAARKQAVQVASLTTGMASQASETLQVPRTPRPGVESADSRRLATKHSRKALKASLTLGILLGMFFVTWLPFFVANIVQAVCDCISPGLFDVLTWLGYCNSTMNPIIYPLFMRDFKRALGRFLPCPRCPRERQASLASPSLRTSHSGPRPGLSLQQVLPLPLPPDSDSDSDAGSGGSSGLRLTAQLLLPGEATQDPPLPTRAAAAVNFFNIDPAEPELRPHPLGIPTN
Description: (§1) In vitro radioligand binding assays for 5-HT2A, 5-HT6, 5-HT7 and D2 receptors were carried out using methods published by Zajdel et al.. For the assays, HEK293 cell cultures stably expressing the investigated human receptors were used. Cell pellets were thawed and homogenized in 20 vol of assay buffer using an Ultra Turrax tissue homogenizer, then centrifuged twice at 35000 g for 20 min at 4 °C, with incubation for 15 min at 37 °C in between. The composition of the assay buffers was as follows: for 5-HT2A receptors—50 mM Tris-HCl, 0.1 mM EDTA, 4 mM MgCl2 and 0.1% ascorbate; for 5-HT6 receptors—50 mM Tris-HCl, 0.5 mM EDTA, 4 mM MgCl2; for 5-HT7 receptors—50 mM Tris-HCl, 4 mM MgCl2, 10 µM pargyline and 0.1% ascorbate; for D2 receptors—50 mM Tris-HCl, 1 mM EDTA, 4 mM MgCl2, 120 mM NaCl, 5 mM KCl, 1.5 mM CaCl2 and 0.1% ascorbate. All assays were incubated in total volume of […] in 96-well microtitre plates for 1 h at 37 °C, except for 5-HT2A receptors which were incubated at room temperature for 1.5 h. The process of equilibration was terminated by rapid filtration through Unifilter plates with a 96-well cell harvester, and radioactivity retained on the filters was quantified on a Microbeta plate reader (PerkinElmer, USA). For displacement studies, the assay samples contained as radioligands (PerkinElmer): 2 nM [^3H]-ketanserin (spec. act. 53.4 Ci/mmol) for 5-HT2A receptors; 2 nM [^3H]-LSD (spec. act. 83.6 Ci/mmol) for 5-HT6 receptors; 0.6 nM [^3H]-5-CT (spec. act. 39.2 Ci/mmol) for 5-HT7 receptors and [^3H]-raclopride (spec. act. 76.0 Ci/mmol) for D2 receptors. […] Each compound was tested in triplicate at 7–8 concentrations (10^-11-10^-4 M). The inhibition constants (Ki) were calculated from the Cheng–Prusoff equation [46]. Results were expressed as means of at least two separate experiments.

5-HT7 receptors = molecular target: T4, 5-HT7 receptors (Homo sapiens, UniProt P34969); assay: 5-HT7 radioligand binding assay; conditions: [3H]-5-CT; HEK293 cells, human receptor
T4 construct: expressed in transfected cells
T4 sequence (P34969 whole entry): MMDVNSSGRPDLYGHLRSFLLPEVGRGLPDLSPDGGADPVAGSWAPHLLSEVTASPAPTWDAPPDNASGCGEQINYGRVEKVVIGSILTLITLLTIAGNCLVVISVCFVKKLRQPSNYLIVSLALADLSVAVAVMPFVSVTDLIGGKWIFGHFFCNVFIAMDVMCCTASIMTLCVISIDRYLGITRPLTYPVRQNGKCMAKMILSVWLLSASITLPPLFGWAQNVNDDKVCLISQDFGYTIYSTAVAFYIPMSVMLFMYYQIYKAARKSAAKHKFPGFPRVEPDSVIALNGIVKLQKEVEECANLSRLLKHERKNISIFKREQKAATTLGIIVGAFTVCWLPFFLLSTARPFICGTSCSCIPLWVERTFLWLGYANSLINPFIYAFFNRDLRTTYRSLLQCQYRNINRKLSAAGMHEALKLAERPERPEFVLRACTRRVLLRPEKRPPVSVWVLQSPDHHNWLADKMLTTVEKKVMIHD
Description: as §1

T1 sequence (P31652 whole entry): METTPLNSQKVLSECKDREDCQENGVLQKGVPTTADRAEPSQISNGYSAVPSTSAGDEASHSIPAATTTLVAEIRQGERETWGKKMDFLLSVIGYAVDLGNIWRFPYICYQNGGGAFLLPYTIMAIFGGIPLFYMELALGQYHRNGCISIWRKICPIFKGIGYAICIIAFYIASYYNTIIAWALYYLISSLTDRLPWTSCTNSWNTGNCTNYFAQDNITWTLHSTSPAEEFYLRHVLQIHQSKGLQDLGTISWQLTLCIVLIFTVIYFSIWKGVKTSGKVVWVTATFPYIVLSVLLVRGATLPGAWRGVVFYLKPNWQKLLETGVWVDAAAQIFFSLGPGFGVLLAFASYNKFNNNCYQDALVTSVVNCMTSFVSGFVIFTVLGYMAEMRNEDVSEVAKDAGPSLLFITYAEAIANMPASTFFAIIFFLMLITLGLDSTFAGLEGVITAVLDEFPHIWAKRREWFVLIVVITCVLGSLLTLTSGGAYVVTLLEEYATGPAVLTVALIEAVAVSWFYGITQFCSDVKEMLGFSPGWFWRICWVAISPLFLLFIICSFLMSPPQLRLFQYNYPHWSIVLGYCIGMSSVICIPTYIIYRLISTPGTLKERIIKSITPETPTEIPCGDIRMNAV

| SMILES | Ki (SERT protein) | Ki (5-HT2A receptors) | Ki (5-HT6 receptors) | Ki (5-HT7 receptors) | melting point |
| --- | --- | --- | --- | --- | --- |
| O=c1c(-c2ccccc2Cl)c2ccccn2c(=O)n1CCCCN1CCC(c2noc3cc(F)ccc23)CC1 [Compound 6d, 4-(2-Chlorophenyl)-2-{4-[4-(6-fluoro-1,2-benzoxazol)-1-piperidyl]butyl}-pyrido[1,2-c]pyrimidine-1,3-dione] | 373 ± 32 nM | 20 ± 4 nM | 709 ± 135 nM | 109 ± 14 nM | 69 to 74 °C |
| O=c1c(-c2ccccc2)c2ccccn2c(=O)n1CCCCN1CCC(c2noc3cc(F)ccc23)CC1 [Compound 6a, 4-Phenyl-2-{4-[4-(6-fluoro-1,2-benzoxazol-3-yl)-1-piperidyl]butyl}-pyrido[1,2-c]pyrimidine-1,3-dione] | 32 ± 3.6 nM | 17 ± 3 nM | 376 ± 58 nM | 62 ± 5 nM | 132 to 133 °C |
